What is called IC50 is the concentration that gives 50% inhibition.

In ChEMBL document CHEMBL1221172, “Identification of a specific inhibitor of the histone methyltransferase SU(VAR)3-9” (Nat Chem Biol, 2005) one finds IC50, inhibition and Activity data, which are given here for one compound.

Molecules are shown by their SMILES. Calls of active or inactive are those of the source. The calls are words filed in the database; no cut-off is given here.

Series [1] deals with T1, Histone-lysine N-methyltransferase Set8 (Drosophila melanogaster, UniProt Q9VFK6).
T1 sequence (Q9VFK6 whole entry): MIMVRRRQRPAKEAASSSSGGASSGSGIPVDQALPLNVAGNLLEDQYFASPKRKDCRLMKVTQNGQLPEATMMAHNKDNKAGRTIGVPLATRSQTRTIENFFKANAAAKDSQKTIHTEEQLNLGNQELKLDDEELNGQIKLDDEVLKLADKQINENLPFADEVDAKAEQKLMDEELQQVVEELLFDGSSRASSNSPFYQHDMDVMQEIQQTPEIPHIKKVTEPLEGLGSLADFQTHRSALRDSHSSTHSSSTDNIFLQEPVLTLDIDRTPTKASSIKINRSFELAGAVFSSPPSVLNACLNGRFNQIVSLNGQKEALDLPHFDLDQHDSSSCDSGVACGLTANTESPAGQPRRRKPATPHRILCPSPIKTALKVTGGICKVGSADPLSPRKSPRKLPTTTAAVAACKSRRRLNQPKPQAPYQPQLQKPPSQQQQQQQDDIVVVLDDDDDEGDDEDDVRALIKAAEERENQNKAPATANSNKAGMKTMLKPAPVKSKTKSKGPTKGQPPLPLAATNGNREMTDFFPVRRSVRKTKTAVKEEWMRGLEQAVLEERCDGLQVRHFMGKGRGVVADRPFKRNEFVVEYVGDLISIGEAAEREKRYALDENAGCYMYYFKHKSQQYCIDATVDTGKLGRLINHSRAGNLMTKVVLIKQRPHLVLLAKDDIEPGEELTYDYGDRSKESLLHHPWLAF
Kind of series: Inhibition of Drosophila melanogaster PRSET2.

For series [2], the target named is Histone-lysine N-methyltransferase Su(var)3-9 (Drosophila melanogaster) (UniProt P45975). The settings on record: SL2, 0.5 uM.
Histone-lysine N-methyltransferase Su(var)3-9 (Drosophila melanogaster), sequence (P45975 whole entry): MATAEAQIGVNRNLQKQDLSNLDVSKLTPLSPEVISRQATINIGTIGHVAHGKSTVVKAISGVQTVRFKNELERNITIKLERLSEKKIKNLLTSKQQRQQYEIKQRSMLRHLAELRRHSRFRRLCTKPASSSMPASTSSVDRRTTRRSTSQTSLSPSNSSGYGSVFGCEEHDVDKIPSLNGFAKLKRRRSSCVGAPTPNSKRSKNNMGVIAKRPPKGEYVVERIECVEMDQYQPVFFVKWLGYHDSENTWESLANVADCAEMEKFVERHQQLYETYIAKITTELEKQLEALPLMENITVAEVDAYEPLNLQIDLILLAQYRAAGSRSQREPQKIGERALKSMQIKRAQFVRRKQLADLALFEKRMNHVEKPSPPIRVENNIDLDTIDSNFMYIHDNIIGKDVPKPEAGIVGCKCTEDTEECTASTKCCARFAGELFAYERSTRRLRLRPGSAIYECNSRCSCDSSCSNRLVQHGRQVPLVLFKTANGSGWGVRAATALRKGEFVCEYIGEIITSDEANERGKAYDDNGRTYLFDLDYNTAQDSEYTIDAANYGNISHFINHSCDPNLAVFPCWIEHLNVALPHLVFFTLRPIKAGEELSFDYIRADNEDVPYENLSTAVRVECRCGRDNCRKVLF
Description: Inhibition of SU(VAR)3-9 in Drosophila melanogaster SL2 cells assessed as inhibition of methylation at Lys79in Histone H3 at 0.5 uM by Western blot method
Series [3] has the same target. The settings on record: SL2, 0.5 uM. This is another data set of the same source.
Description: Inhibition of SU(VAR)3-9 in Drosophila melanogaster SL2 cells assessed as inhibition of methylation at Lys36 in Histone H3 at 0.5 uM by MALDI-TOF MS
For series [4] the target is unchanged. Conditions: SL2, 0.5 uM. This is another data set of the same source.
Description: Inhibition of SU(VAR)3-9 in Drosophila melanogaster SL2 cells assessed as inhibition of methylation at Lys4in Histone H3 at 0.5 uM by MALDI-TOF MS
Series [5] shares this target. The settings on record: SL2, 0.5 uM. This is another data set of the same source.
Description: Inhibition of SU(VAR)3-9 in Drosophila melanogaster SL2 cells assessed as inhibition of methylation at Lys27 in Histone H3 at 0.5 uM by MALDI-TOF MS
Series [6] has the same target. Conditions: SL2, 0.5 uM. The source holds these as a separate data set.
Description: Inhibition of SU(VAR)3-9 in Drosophila melanogaster SL2 cells assessed as inhibition of methylation at Lys27 in Histone H3 at 0.5 uM by Western blot method
The target is the same in series [7]. The settings on record: SL2, 0.5 uM. The source holds these as a separate data set.
Description: Inhibition of SU(VAR)3-9 in Drosophila melanogaster SL2 cells assessed as reduction of H3K9me3 at 0.5 uM by immunostaining method
Series [8] has the same target. Conditions: SL2, 0.5 uM. The source holds these as a separate data set.
Description: Inhibition of SU(VAR)3-9 in Drosophila melanogaster SL2 cells assessed as inhibition of methylation at Lys4in Histone H3 at 0.5 uM by Western blot method
The target of series [9] is T2, Histone-lysine N-methyltransferase, H3 lysine-9 specific dim-5 (Neurospora crassa, UniProt Q8X225).
T2 sequence (Q8X225 whole entry): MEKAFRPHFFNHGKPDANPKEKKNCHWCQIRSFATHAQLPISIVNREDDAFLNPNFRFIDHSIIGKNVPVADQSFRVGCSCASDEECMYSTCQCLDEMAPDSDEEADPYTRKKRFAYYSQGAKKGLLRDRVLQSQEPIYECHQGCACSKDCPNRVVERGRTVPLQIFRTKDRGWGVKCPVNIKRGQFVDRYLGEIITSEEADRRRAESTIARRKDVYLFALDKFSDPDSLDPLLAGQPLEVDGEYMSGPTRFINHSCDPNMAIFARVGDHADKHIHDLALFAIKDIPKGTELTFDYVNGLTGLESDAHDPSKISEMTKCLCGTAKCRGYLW
Briefly: Inhibition of Neurospora crassa DIM5.

Series [10] has as its target Histone-lysine N-methyltransferase Su(var)3-9 (Drosophila melanogaster) (UniProt P45975). The settings on record: SL2, 0.1 uM.
Description: Inhibition of SU(VAR)3-9 in Drosophila melanogaster SL2 cells assessed as reduction of H3K9me2 at 0.1 uM after 5 days by MALDI-TOF MS seeded at 2.5 million cells/ml density
The target in series [11] is T3, Histone-lysine N-methyltransferase EHMT2 (Mus musculus, UniProt Q9Z148).
T3 sequence (Q9Z148 whole entry): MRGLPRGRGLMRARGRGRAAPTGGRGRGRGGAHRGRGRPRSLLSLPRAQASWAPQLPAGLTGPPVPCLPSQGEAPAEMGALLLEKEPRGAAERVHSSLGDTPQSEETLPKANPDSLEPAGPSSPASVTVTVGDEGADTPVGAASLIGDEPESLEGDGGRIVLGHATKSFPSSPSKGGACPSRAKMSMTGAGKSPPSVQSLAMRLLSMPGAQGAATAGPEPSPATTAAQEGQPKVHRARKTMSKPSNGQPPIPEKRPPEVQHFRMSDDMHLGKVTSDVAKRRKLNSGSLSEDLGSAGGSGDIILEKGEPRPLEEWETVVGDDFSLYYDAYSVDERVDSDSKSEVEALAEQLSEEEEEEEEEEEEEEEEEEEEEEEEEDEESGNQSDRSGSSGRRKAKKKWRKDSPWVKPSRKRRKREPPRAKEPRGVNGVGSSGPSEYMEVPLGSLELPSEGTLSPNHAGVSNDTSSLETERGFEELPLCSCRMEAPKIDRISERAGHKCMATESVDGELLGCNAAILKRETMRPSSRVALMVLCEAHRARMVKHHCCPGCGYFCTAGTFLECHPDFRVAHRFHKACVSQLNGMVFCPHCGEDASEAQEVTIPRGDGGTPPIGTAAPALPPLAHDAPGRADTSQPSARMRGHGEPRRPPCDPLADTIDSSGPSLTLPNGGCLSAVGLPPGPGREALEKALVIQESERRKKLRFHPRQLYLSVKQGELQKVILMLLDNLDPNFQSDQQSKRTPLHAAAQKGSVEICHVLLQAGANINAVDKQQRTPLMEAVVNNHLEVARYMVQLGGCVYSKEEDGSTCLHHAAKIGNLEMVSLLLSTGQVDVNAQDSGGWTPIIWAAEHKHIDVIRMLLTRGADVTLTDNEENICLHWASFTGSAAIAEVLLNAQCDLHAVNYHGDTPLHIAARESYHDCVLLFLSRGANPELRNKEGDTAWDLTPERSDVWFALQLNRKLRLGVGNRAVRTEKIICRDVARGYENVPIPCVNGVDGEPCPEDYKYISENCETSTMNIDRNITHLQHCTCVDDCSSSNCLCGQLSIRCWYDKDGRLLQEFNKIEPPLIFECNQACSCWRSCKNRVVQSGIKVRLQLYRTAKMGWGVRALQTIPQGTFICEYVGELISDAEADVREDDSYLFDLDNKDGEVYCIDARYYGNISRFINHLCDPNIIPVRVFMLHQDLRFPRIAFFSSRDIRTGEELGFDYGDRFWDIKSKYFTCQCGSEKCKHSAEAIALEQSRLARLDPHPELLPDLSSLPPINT
Briefly: Inhibition of mouse G9a.

Series [12] concerns SL-2. Kind of series: Cytotoxicity against Drosophila melanogaster SL-2 cells seeded at low density. The format is cell-based.
Series [13] concerns the target Histone-lysine N-methyltransferase Su(var)3-9 (Drosophila melanogaster, UniProt P45975). Kind of series: Inhibition of Drosophila melanogaster SU(VAR)3-9.
For series [14], the target named is Histone-lysine N-methyltransferase Su(var)3-9 (Drosophila melanogaster) (UniProt P45975). The settings on record: SL2, 0.5 uM. This is another data set of the same source.
Description: Inhibition of SU(VAR)3-9 in Drosophila melanogaster SL2 cells assessed as reduction of H3K9me2 at 0.5 uM after 5 days by MALDI-TOF MS seeded at 2.5 million cells/ml density
Series [15] concerns the target Histone-lysine N-methyltransferase E(z) (Drosophila melanogaster, UniProt P42124). Kind of series: Inhibition of Drosophila melanogaster histone-lysine N-methyl-transferase E(z).
Series [16] in a line: Inhibition of Drosophila melanogaster SET7/9.
In series [17] the test system is SL-2. Briefly: Cytotoxicity against Drosophila melanogaster SL-2 cells seeded at high density assessed as growth retardation for 24 to 48 hrs up to 0.5 uM. Format: cell-based.
Series [18] deals with Histone-lysine N-methyltransferase Su(var)3-9 (Drosophila melanogaster) (UniProt P45975). Conditions: SL2, 0.5 uM. The source holds these as a separate data set.
Description: Inhibition of SU(VAR)3-9 in Drosophila melanogaster SL2 cells assessed as inhibition of methylation at Lys79in Histone H3 at 0.5 uM by MALDI-TOF MS
The nature of series [19]: Inhibition of human SU(VAR)3-9.
In series [20] the target is Histone-lysine N-methyltransferase Su(var)3-9 (Drosophila melanogaster) (UniProt P45975). Conditions: SL2, 0.5 uM. This is another data set of the same source.
Description: Inhibition of SU(VAR)3-9 in Drosophila melanogaster SL2 cells assessed as inhibition of methylation at Lys36 in Histone H3 at 0.5 uM by Western blot method

Histone-lysine N-methyltransferase Su(var)3-9, sequence (P45975 whole entry): as the sequence (P45975 whole entry) above
Histone-lysine N-methyltransferase E(z), sequence (P42124 whole entry): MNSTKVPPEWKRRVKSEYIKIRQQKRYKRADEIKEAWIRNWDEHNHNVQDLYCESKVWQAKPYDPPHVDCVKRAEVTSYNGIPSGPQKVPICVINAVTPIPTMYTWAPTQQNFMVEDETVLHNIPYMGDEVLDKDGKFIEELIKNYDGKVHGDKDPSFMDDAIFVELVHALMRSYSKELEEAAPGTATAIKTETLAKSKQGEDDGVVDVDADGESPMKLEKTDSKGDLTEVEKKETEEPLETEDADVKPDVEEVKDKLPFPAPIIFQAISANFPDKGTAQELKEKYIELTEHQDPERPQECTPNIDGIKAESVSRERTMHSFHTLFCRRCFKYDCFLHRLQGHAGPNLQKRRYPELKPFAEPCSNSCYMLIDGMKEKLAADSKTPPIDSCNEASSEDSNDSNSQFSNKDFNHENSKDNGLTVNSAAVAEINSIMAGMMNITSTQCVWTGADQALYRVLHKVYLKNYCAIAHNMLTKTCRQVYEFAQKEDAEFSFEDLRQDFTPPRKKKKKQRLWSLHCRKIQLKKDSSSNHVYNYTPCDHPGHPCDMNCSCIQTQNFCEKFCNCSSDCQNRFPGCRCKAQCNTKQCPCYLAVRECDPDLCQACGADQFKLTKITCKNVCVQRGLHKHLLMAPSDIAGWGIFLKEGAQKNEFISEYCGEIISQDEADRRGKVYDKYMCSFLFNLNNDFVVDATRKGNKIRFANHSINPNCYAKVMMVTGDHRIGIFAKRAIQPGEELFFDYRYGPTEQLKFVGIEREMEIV

Consider `CN1C(=O)[C@@]23C[C@]4([C@]56C[C@@]78SS[C@@](CO)(C(=O)N7[C@H]5Nc5ccccc56)N(C)C8=O)c5ccccc5N[C@@H]4N2C(=O)[C@]1(CO)SS3` [CHAETOCIN], for which the concentration for half-maximal inhibition (IC50) is above 180 µM in [1]; 3 µM in series [9]; 2.5 µM in series [11]; 0.6 µM in series [13]; above 90 µM in [15]; above 180 µM in series [16]. In series [19], this compound came in with an IC50 of 0.8 µM. The inhibition result in [2], in [3], in [4], in [5], in series [6] and in series [8] was “inactive” in each case. Moreover, the inhibition result in [18] and in series [20] was “inactive” throughout. Moreover, the inhibition entry in series [7], in series [10] and in series [14] was “Active” throughout. Besides, the Activity entry is given as “Toxic” in [12] and “Non-toxic” in series [17].
